Our source for the IC50 values is ChEMBL document CHEMBL6153148, “Carboxamide-Bearing Panobinostat Analogues Designed To Interact with E103-D104 at the Cavity Opening of Class I HDAC Isoforms” (ACS Med Chem Lett, 2025).

The assay deals with Histone deacetylase 2 (Homo sapiens, UniProt Q92769). Kind of assay: Inhibition of human HDAC2 using RHKKAc as substrate by fluorescence based analysis.
Sequence of Histone deacetylase 2 (Q92769 whole entry): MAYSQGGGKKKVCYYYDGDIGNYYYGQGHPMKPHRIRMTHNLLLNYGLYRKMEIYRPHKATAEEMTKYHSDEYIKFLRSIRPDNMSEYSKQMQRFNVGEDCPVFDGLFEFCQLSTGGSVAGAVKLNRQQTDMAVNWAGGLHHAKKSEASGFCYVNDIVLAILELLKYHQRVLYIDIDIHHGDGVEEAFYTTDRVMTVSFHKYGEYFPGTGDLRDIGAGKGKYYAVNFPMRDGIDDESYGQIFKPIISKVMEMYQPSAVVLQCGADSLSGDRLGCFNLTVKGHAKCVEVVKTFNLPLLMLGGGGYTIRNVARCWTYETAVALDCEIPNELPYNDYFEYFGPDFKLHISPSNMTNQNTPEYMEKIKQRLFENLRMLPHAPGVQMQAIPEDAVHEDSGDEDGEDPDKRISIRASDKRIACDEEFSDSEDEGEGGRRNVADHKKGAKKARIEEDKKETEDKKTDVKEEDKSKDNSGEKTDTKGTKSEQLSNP
`NC(=O)[C@H]1Cc2c([nH]c3ccccc23)[C@H](c2ccc(/C=C/C(=O)NO)cc2)N1` showed a concentration for half-maximal inhibition (IC50) of 3320 nM.
Take `NC(=O)[C@@H]1Cc2c([nH]c3ccccc23)[C@@H](c2ccc(/C=C/C(=O)NO)cc2)N1`: inhibition was half-maximal at 450 nM (IC50).
`NC(=O)[C@@H](Cc1c[nH]c2ccccc12)NCc1ccc(/C=C/C(=O)NO)cc1` had an IC50 of 420 nM.
As for `Cc1[nH]c2ccccc2c1C[C@@H](NCc1ccc(/C=C/C(=O)NO)cc1)C(N)=O`, the IC50 came out at 530 nM.
Consider `NC(=O)[C@H](Cc1c[nH]c2ccccc12)NCc1ccc(/C=C/C(=O)NO)cc1`, for which half-maximal inhibition (IC50) was put at 350 nM.
The compound `NC(=O)[C@@H]1Cc2c([nH]c3ccccc23)[C@H](c2ccc(/C=C/C(=O)NO)cc2)N1` displayed a concentration for half-maximal inhibition (IC50) of 450 nM.
`NC(=O)[C@H]1Cc2c([nH]c3ccccc23)[C@@H](c2ccc(/C=C/C(=O)NO)cc2)N1` showed a half-inhibitory concentration (IC50) of 3320 nM.
Turning to `Cc1[nH]c2ccccc2c1C[C@H](NCc1ccc(/C=C/C(=O)NO)cc1)C(N)=O`, inhibition was half-maximal at 150 nM (IC50).

The IC50 is the midpoint of a concentration-inhibition curve. The low end stands for higher potency, the high end for lower potency.
